Experimental data reported in patent US20040254246A1, “Treating or preventing hot flashes using prodrugs of GABA analogs” (priority 2003, published 2004).

Experiments:
[1] = tested on: hot flashes in postmenopausal women; settings: 59 postmenopausal women, double-blind placebo controlled trial; cited from earlier work
[2] = tested on: hot flashes in postmenopausal women; experiment: Open label clinical study of hot flash frequency and severity, immediate release capsules; format: in vivo, human; settings: immediate release 300 mg capsules, two capsules three times daily (1800 mg/day), oral, two weeks
From the text: Twenty postmenopausal women who have been experiencing hot flashes (an average of at least 6 per day, range 6-20 per day) over the past 12 months and who have not been treated with hormone therapy (i.e., no estrogen, progestin, tamoxifen or leuprolide therapy) over the past 2 months are recruited to an open label clinical study on the effect of administration of a gabapentin prodrug on the frequency and severity of hot flash symptoms. After a two week baseline screening assessment, the prodrug 1-{[(α-isobutanoyloxyethoxy)carbonyl]aminomethyl}-1-cyclohexane acetic acid (synthesized as described by Gallop et al., International Publication No. WO 02/100347), formulated as an immediate release dosage form in 300 mg capsules, is administered in two capsules three times daily (1800 mg/day, equal to ˜900 mg gabapentin equivalents/day) for two weeks. Each patient records the frequency and severity of hot flashes in a diary following the protocol of Guttuso et al., Obstet. Gynecol. 2003, 101, 337-345. Daily hot flash frequency is calculated by totaling the number of hot flashes per week and dividing by the number of days in the week for which data is recorded. The primary outcome measure is the percentage change in hot flash frequency from baseline to the end of treatment week two. […]

[3] = Drug release from sustained release oral osmotic dosage form in artificial gastric fluid; format: physicochemical; settings: osmotic sustained release dosage form of Section 5.2 (700 mg drug composition), one 10 mil passageway
Description: A sustained release oral osmotic delivery dosage form containing the gabapentin prodrug 1-{[(α-isobutanoyloxyethoxy)carbonyl]aminomethyl}-1-cyclohexane acetic acid is prepared following methods described in Ayer et al., U.S. Pat. No. 5,707,663. Accordingly, 660 grams of 1-{[α-isobutanoyloxyethoxy)carbonyl]aminomethyl}-1-cyclohexane acetic acid and 30 grams of pharmaceutical acceptable poly(ethylene oxide), 5,000,000 molecular weight, is added to the bowl of a fluid bed granulator. The microencapsulation process is computerized and atomized in cycles. The process is initiated by first fluidizing the dry drug and the polymer powder for 3 minutes and the blended granules are microencapsulated with aqueous hydroxypropylmethylcellulose solution. The polymer solution is prepared by dissolving 35 grams of hydroxypropylmethylcellulose comprising 11,200 molecular weight in 400 grams of water. […]
The osmotic displacement-push composition is then prepared as follows: first, 3.7 kg of sodium chloride and 150 grams of red ferric oxide are separately screened through an 8 mesh screen using a Quadro comil. […] The conditions monitored during the process are as follows: solution spray rate of 400 g/min (3 nozzles are used); inlet temperature 45° C.; outlet temperature 24° C. and process air flow of 1,500 ft^3/minute. […]

[4] = tested on: hot flashes in postmenopausal women; experiment: Open label clinical study of hot flash frequency and severity, osmotic sustained release capsules; format: in vivo, human; settings: osmotic sustained release capsules 700 mg, two capsules twice daily (2800 mg/day), oral, two weeks
From the text: Twenty postmenopausal women who have been experiencing hot flashes (an average of at least 6 per day, range 6-20 per day) over the past 12 months and who have not been treated with hormone therapy (i.e., no estrogen, progestin, tamoxifen or leuprolide therapy) over the past 2 months are recruited to an open label clinical study on the effect of administration of gabapentin prodrugs on the frequency and severity of hot flash symptoms. After a two week baseline screening assessment, the prodrug 1-{[(α-isobutanoyloxyethoxy)carbonyl]aminomethyl}-1-cyclohexane acetic acid, formulated as osmotic sustained release capsules containing 700 mg drug (preparation of the sustained release capsules is described in Section 5.2 above), is administered in two capsules twice daily (2800 mg/day, equal to ˜1400 mg gabapentin equivalents/day) for two weeks. Each patient records the frequency and severity of hot flashes in a diary following the protocol of Guttuso et al., Obstet. Gynecol 2003, 101, 337-345. Daily hot flash frequency is calculated by totaling the number of hot flashes per week and dividing by the number of days in the week for which data is recorded. The primary outcome measure is the percentage change in hot flash frequency from baseline to the end of treatment week two.

Compound | reduction in hot flash frequency from baseline [1] | decrease in mean hot flash intensity from baseline [2] | release rate [3] [mg/h] | decrease in mean hot flash intensity from baseline [4]
NCC1(CC(=O)O)CCCCC1 [gabapentin, 1-Aminomethyl-1-cyclohexane acetic acid] | substantial reduction in hot flash frequency from baseline |  |  | 
CC(OC(=O)NCC1(CC(=O)O)CCCCC1)OC(=O)C(C)C (stereo not drawn) [1-{[(α-isobutanoyloxyethoxy)carbonyl]aminomethyl}-1-cyclohexane acetic acid] |  | more than 35% | > 20 | more than 35%
